Reference: PubChem BioAssay AID2060335 (Molecular Pharmacology Branch, DTP, NCI, 2025)

System: DU-145 multicell spheroids with HUVEC/MSC, viability
Assay: Anticancer human tumor DU-145 cell line growth inhibition [IpAb];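 note: spheroids exposed to agents for seven days before measurement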;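 for viability, T/C: percent of DMSO vehicle control viability so 100% = untreated level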
Conditions: for IC50: curve of first compound; for viability, T/C: stronger effect = lower value
Excerpt: Combinatorial screen of targeted agents with ipatasertib and abemaciclib in multi-cell type tumor spheroids
A high-throughput screen of multi-cell type tumor spheroids was designed to identify active combinations of targeted small molecules and ipatasertib or abemaciclib. Complex spheroids include a stromal component modeled by human endothelial cells (HUVEC) and fibroblasts modeled by human mesenchymal stem cells (MSCs). The concentration ranges selected for each drug and investigational agent were based upon clinically achievable concentrations if the clinical Cmax of the agent was known.
Compounds. The drugs and investigational agents: ipatasertib (NSC767898), abemaciclib(NSC768073), selumetinib (NSC741078), trametinib (758246), adavosertib (NSC754352), everolimus (NSC733504), sapanisertib (NSC764658), vemurafenib (NSC761431), venetoclax (NSC766270), copanlisib (NSC809693), apelisib (NSC765974), palbociblib (NSC758247), vemurafenib (NSC761431), dabrafenib (NSC764134), ravoxertinib (NSC781343), BMS-387032 (NSC767048), sotorasib (NSC818433), talazoparib (NSC767125) and afursertib (NSC778305), were obtained from the National Cancer Institute (NCI) Developmental Therapeutics Program Chemical Repository. The FDA-approved anticancer drug set is available from the NCI Developmental Therapeutics Program. […] The stock solutions were prepared in dimethyl sulfoxide (DMSO, Sigma-Aldrich, St. Louis, MO, cat. D2650) at 800-fold the tested concentration and stored at -70 degrees C prior to their use. All drugs and investigational agents were tested over a range starting from a high concentration at or near the clinical Cmax and decreasing in half-log increments. If the clinical Cmax for an agent had not been determined, the highest concentration tested was 10 microM.
NCI60 Cell Culture. NCI60 cell lines were obtained from the NCI Developmental Therapeutics Program Tumor Repository. For each lot of cells, the Repository performed Applied Biosystems AmpFLSTR Identifiler testing with PCR amplification to confirm consistency with the published Identifier STR profile for each cell line. Cells were kept in continuous culture for no more than 20 passages. The optimal seeding densities for each of the cell lines at each time point assessed were determined prior to performing the concentration response studies. Briefly, the NCI60 human tumor lines were grown as monolayers in RPMI 1640 medium supplemented with 10% FBS and 2 mmol/L L-glutamine.
An additional 9 lines were from the NCI60 cell line panel including MDA-MB-231 breast carcinoma, MDA-MB-468 breast carcinoma, MCF7 breast carcinoma, Hs578T breast carcinoma, MALME-3M melanoma, SK-MEL-2 melanoma, SK-OV-3 ovarian carcinoma, DU-145 prostate carcinoma, PC-3 prostate carcinoma, all cell lines along with major genetic alterations are listed on Table 2. Pooled donor human umbilical vein endothelial cells (HUVEC, Lonza, cat. CC-2519) and human mesenchymal stem cells (hMSC, Lonza, cat. PT-2501) were purchased from Lonza (Walkersville, MD).
PDMR cell lines were grown in complete medium (DC medium): Dulbecco's modified Eagle's medium (DMEM)/F12 supplemented with 5% fetal bovine serum (FBS), 2 mM L-glutamine, 100 U/mL penicillin and 100 µg/ml streptomycin, 0.4 µg/ml hydrocortisone, 10 ng/ml epidermal growth factor (EGF) recombinant human protein, 24 µg/mL adenine, and 0.1 mg/mL primocin. During culture from frozen stock vials, PDMR cells were cultured in the same medium containing 10 µM Y-27632 (see Table 3). The PDCs were cultured in complete DMEM/F12 media without 10 microM Y-27632 dihydrochloride for at least two passages prior to the screen. The pooled donor HUVEC and hMSC were cultured in endothelial cell growth medium 2 (PromoCell, Heidelberg, Germany, cat. C-22011) and mesenchymal stem cell growth medium 2 (PromoCell, cat. C-28009), respectively. For all experiments, HUVEC and hMSC were used at passages </=5.
[…]

[1] = second compound 0.1 µM, first compound 0.0316 µM
[2] = second compound 0.1 µM, first compound 0.1 µM
[3] = second compound 0.1 µM, first compound 0.316 µM
[4] = second compound 0.1 µM, first compound 1 µM
[5] = second compound 0.1 µM, first compound 3.16 µM
[6] = second compound 0.1 µM, first compound 10 µM
[7] = second compound 0.316 µM, first compound 0.0316 µM
[8] = second compound 0.316 µM, first compound 0.1 µM
[9] = second compound 0.316 µM, first compound 0.316 µM
[10] = second compound 0.316 µM, first compound 1 µM
[11] = second compound 0.316 µM, first compound 3.16 µM
[12] = second compound 0.316 µM, first compound 10 µM
[13] = second compound 1 µM, first compound 0.0316 µM
[14] = second compound 1 µM, first compound 0.1 µM
[15] = second compound 1 µM, first compound 0.316 µM
[16] = second compound 1 µM, first compound 1 µM
[17] = second compound 1 µM, first compound 3.16 µM
[18] = second compound 1 µM, first compound 10 µM
[19] = second compound 3.16 µM, first compound 0.0316 µM
[20] = second compound 3.16 µM, first compound 0.1 µM
[21] = second compound 3.16 µM, first compound 0.316 µM
[22] = second compound 3.16 µM, first compound 1 µM
[23] = second compound 3.16 µM, first compound 3.16 µM
[24] = second compound 3.16 µM, first compound 10 µM
[25] = second compound 10 µM, first compound 0.0316 µM
[26] = second compound 10 µM, first compound 0.1 µM
[27] = second compound 10 µM, first compound 0.316 µM
[28] = second compound 10 µM, first compound 1 µM
[29] = second compound 10 µM, first compound 3.16 µM
[30] = second compound 10 µM, first compound 10 µM

Structure (SMILES) | IC50 (second compound 0.1 µM) [nM] | IC50 (second compound 0.316 µM) [nM] | IC50 (second compound 1 µM) [nM] | IC50 (second compound 3.16 µM) [nM] | IC50 (second compound 10 µM) [nM] | viability, T/C [1] [%] | viability, T/C [2] [%] | viability, T/C [3] [%] | viability, T/C [4] [%] | viability, T/C [5] [%] | viability, T/C [6] [%] | viability, T/C [7] [%] | viability, T/C [8] [%] | viability, T/C [9] [%] | viability, T/C [13] [%] | viability, T/C [14] [%] | viability, T/C [19] [%] | viability, T/C [20] [%] | viability, T/C [25] [%] | viability, T/C [26] [%] | also measured
C=CCn1c(=O)c2cnc(Nc3ccc(N4CCN(C)CC4)cc3)nc2n1-c1cccc(C(C)(C)O)n1 + CC(C)NCC(C(=O)N1CCN(c2ncnc3c2C(C)CC3O)CC1)c1ccc(Cl)cc1 | 82.7 | < 31.6 | < 31.6 | < 31.6 | < 31.6 | 71 | 47.1 | 26.5 | 23.9 | 17.5 | 13.7 | 44.6 | 36.7 | 19.3 | 32.7 | 26.6 | 23 | 16.1 | 16.9 | 14 | viability, T/C [10]: 18.8%; viability, T/C [11]: 15.8%; viability, T/C [12]: 12.9%; viability, T/C [15]: 13.3%; viability, T/C [16]: 15.1%; viability, T/C [17]: 14.3%; viability, T/C [18]: 12.6%; viability, T/C [21]: 10%; viability, T/C [22]: 12%; viability, T/C [23]: 11.8%; viability, T/C [24]: 10.4%; viability, T/C [27]: 8.4%; viability, T/C [28]: 10.6%; viability, T/C [29]: 9.3%; viability, T/C [30]: 9.33%
CC(C)n1nc(-c2ccc3oc(N)nc3c2)c2c(N)ncnc21 + CC(C)NCC(C(=O)N1CCN(c2ncnc3c2C(C)CC3O)CC1)c1ccc(Cl)cc1 | 0.905 | < 0.316 | < 0.316 | < 0.316 | < 0.316 | 12.2 | 9.34 |  |  |  |  | 9.74 | 7.89 |  | 7.4 | 6.44 | 6.17 | 5.92 | 5.82 | 5.09 | viability, T/C (second compound 0.1 µM, first compound 0.000316 µM): 64.2%; viability, T/C (second compound 0.1 µM, first compound 0.001 µM): 48.1%; viability, T/C (second compound 0.1 µM, first compound 0.00316 µM): 32.4%; viability, T/C (second compound 0.1 µM, first compound 0.01 µM): 18.1%; viability, T/C (second compound 0.316 µM, first compound 0.000316 µM): 49.2%; viability, T/C (second compound 0.316 µM, first compound 0.001 µM): 32.3%; viability, T/C (second compound 0.316 µM, first compound 0.00316 µM): 22.9%; viability, T/C (second compound 0.316 µM, first compound 0.01 µM): 13.5%; viability, T/C (second compound 1 µM, first compound 0.000316 µM): 29%; viability, T/C (second compound 1 µM, first compound 0.001 µM): 23.1%; viability, T/C (second compound 1 µM, first compound 0.00316 µM): 14%; viability, T/C (second compound 1 µM, first compound 0.01 µM): 8.57%; viability, T/C (second compound 3.16 µM, first compound 0.000316 µM): 18.6%; viability, T/C (second compound 3.16 µM, first compound 0.001 µM): 14.2%; viability, T/C (second compound 3.16 µM, first compound 0.00316 µM): 9.92%; viability, T/C (second compound 3.16 µM, first compound 0.01 µM): 6.7%; viability, T/C (second compound 10 µM, first compound 0.000316 µM): 14.1%; viability, T/C (second compound 10 µM, first compound 0.001 µM): 14.2%; viability, T/C (second compound 10 µM, first compound 0.00316 µM): 7.9%; viability, T/C (second compound 10 µM, first compound 0.01 µM): 6.04%
CC1(C)CCC(CN2CCN(c3ccc(C(=O)NS(=O)(=O)c4ccc(NCC5CCOCC5)c([N+](=O)[O-])c4)c(Oc4cnc5[nH]ccc5c4)c3)CC2)=C(c2ccc(Cl)cc2)C1 + CC(C)NCC(C(=O)N1CCN(c2ncnc3c2C(C)CC3O)CC1)c1ccc(Cl)cc1 | 3450 | 497 | < 31.6 | < 31.6 | < 31.6 | 86.7 | 87.5 | 78.1 | 74.9 | 53.3 | 11.5 | 58.1 | 53.6 | 50.6 | 30.5 | 29.4 | 23.1 | 20.6 | 19.1 | 19.2 | viability, T/C [10]: 45.2%; viability, T/C [11]: 37%; viability, T/C [12]: 8.7%; viability, T/C [15]: 30.9%; viability, T/C [16]: 28.6%; viability, T/C [17]: 27.1%; viability, T/C [18]: 10.4%; viability, T/C [21]: 20.4%; viability, T/C [22]: 19.6%; viability, T/C [23]: 19.9%; viability, T/C [24]: 5.88%; viability, T/C [27]: 18.4%; viability, T/C [28]: 16.9%; viability, T/C [29]: 15.9%; viability, T/C [30]: 5.38%
CCCS(=O)(=O)Nc1ccc(F)c(C(=O)c2c[nH]c3ncc(-c4ccc(Cl)cc4)cc23)c1F + CC(C)NCC(C(=O)N1CCN(c2ncnc3c2C(C)CC3O)CC1)c1ccc(Cl)cc1 | > 10000 | > 10000 | < 31.6 | < 31.6 | < 31.6 | 88.2 | 91.3 | 86.6 | 96.3 | 96.7 | 68.2 | 53.9 | 64.1 | 61.4 | 33.1 | 31.8 | 22.3 | 25.9 | 19.6 | 20.1 | viability, T/C [10]: 76.4%; viability, T/C [11]: 66.8%; viability, T/C [12]: 43.6%; viability, T/C [15]: 37.7%; viability, T/C [16]: 41.2%; viability, T/C [17]: 46.3%; viability, T/C [18]: 29.9%; viability, T/C [21]: 24.4%; viability, T/C [22]: 22.4%; viability, T/C [23]: 23.6%; viability, T/C [24]: 20.3%; viability, T/C [27]: 19.1%; viability, T/C [28]: 19.7%; viability, T/C [29]: 18.3%; viability, T/C [30]: 14.2%
